The record followed here is US8772274B1, “Anti-cancer compositions and methods” (The Penn State Research Foundation, priority 2008, dated 2014).

Test [1] concerns colon adenocarcinoma cells (Caco-2, HT 29, HCT 116, SW 480). The test is described as follows: MTS viability, four colon cancer cell lines (summary). It counts as cell-based.
Procedure: The IC50 value is evaluated by treating with increasing concentrations of PBIT, PEIT, PEISe (10-100 μM) or PBISe (1.6-50 μM) for 24-72 hours and the number of viable cell are quantified using MTS (Promega, Wis.).
Test [2] has as its system UACC 903 tumors. The experiment in a line: Apoptosis and proliferation rates in size and time matched tumors. It counts as in vivo, nude mice. To be noted: day 15, i.p. on alternate days.
Procedure: For mechanistic studies, 5×10^6 UACC 903 cells are injected subcutaneously into nude mice generating tumors of the same size developing at parallel time points. 6-days later mice are treated i.p. with DMSO vehicle, PBIT or PBISe (0.315 moles each) on alternate days up to day 15. Size and time matched tumors are harvested at days 9, 11, 13, and 15 to assess changes in cell proliferation and apoptosis. […] Protein concentration is quantitated using Bio-Rad protein assay reagent (Bio-Rad laboratories, Hercules, Calif.) and analyzed by Western blotting.
For caspase-3/7 activity determination, 100 μg of protein lysate is incubated with a Rhodamine-110 conjugated caspase-3/7 substrate (Z-DEVD) for 1-2 hours and fluorescence (485 nm excitation and 520 nm emission) measured in a SPECTRAmax M2 plate reader. […] A minimum of 6 different tumors with 4-6 fields per tumor is analyzed and results represented as the average±SEM. […]
Test [3] concerns PI3 kinase signaling in Caco-2 cells. The test is described as follows: Western blot analysis of Caco-2 cell lysates. It counts as cell-based. How it is done: For additional Western blot analysis, Caco-2 cell lysates are harvested by addition of lyses buffer containing 50 mM HEPES (pH 7.5), 150 mM NaCl, 10 mM EDTA, 10% glycerol, 1% Triton X-100, 1 mM sodium orthovanadate, 0.1 mM sodium molybdate, 1 mM phenylmethylsulfonyl fluoride, 20 μg/ml aprotinin, and 5 μg/ml leupeptin. Whole cell lysates are centrifuged (≦10,000×g) for 10 minutes at 4° C. to remove cell debris. Protein concentrations are quantitated using the BCA assay (Pierce; Rockford, Ill.), and 30 μg of lysate loaded per lane onto NuPAGE Gels (Life Technologies, Inc. Carlsbad, Calif.). Following electrophoresis, samples are transferred to polyvinylidene difluoride (PVDF) membrane (Pall Corporation, Pensacola, Fla.) and the blots probed with antibodies according to each supplier's recommendations: antibodies to PRAS40 and phosphorylated PRAS40 from Invitrogen (Invitrogen Corporation, Carlsbad, Calif.); antibodies to cyclin D1, p27, p21, and Erk2 from Santa Cruz Biotechnology (Santa Cruz, Calif.); and antibodies to Akt2, phosphorylated-Akt (Ser473), phosphorylated-Erk 1/2 and cleaved PARP from Cell Signaling Technology (Danvers, Mass.). Secondary antibodies conjugated with horseradish peroxidase are obtained from Santa Cruz Biotechnology (Santa Cruz, Calif.). Immunoblots are developed using the enhanced chemiluminescence (ECL) detection system (Pierce Biotechnology, Rockford, Ill.) (FIGS. 6A and 6B).

For test [4], the system named is WM115 melanoma cell line. The experiment in a line: MTS cell viability assay, WM115. To be noted: for IC50: Homo sapiens, WM-115, 24 h.
Procedure: 5×10^3 cells per well in 100 μl DMEM-10% FBS are grown in a 96-well plate for 36 or 72 hours, respectively for melanoma (UACC 903, 1205 Lu and WM115) and human fibroblast (FF2441) cell lines and treated with either PBS vehicle or increasing concentrations (3.5-21 μM) of PBIT, PBISe, PEIT or PEISe for 24 hours. Cellular viability compared to control treated cells is measured using the MTS assay (Promega, Madison, Wis.). IC50 (μM) values for each compound in respective cell lines is determined from three independent experiments using GraphPad Prism version 4.01 (GraphPad, San Diego, Calif.), bars, SEM.
Growth inhibitory effects on cultured cells from human vertical growth phase (VGP) melanoma cell line WM115, Lung adenocarcinoma (A549), fibrosarcoma (HT-1080), prostate adenocarcinoma (PC-3), ovarian carcinoma (OVCAR-3), and breast adenocarcinoma (MDA-MB-231) are plated in 96 well plates at a density of 5×10^3 cells/well in 100 μl media. The cells are treated 36 hours later with PBISe (0.19-100 μM), PBIT (10-100 μM), PEIT 10-100 μM), or PEISe (10-100 μM) for 24 h and cell viability measured using MTS assay. Dose response curves for each compound are generated and the IC50 values (μM) determined using GraphPad Prism software. Each experiment is replicated at least 3 times and the average IC50 (μM) values with standard error represented.

Where a name gives a salt, the structure may show the parent alone. Read-outs that look alike come from different tables or passages of the source.

For the compound `N=C(N)[Se]CCc1ccc(CC[Se]C(=N)N)cc1` [PBISe, s,s′-1,4-phenylene-bis(1,2-ethanediyl)bis-isoselenourea dihydrobromide], the “fold more sensitive, colon adenocarcinoma cells than normal cells” value in test [1] (colon lines vs FF2441) is given as 2-7 fold. In addition, in test [1] (read-out: IC50 range, four colon cancer cell lines), the IC50 fell in the range of 2.4 to 5.55 µM. The “caspase-3/7 activity in tumors versus PBIT or DMSO vehicle” value in test [2] was determined as 2 fold. Besides, in test [3], the “cleaved PARP” value is “increase”; the “downstream pPRAS40 level” value is reported as “decreased”; the “pAkt and Akt2 levels” value is on record as “decreased”. For the same compound, the IC50 in test [4] (read-out: IC50, WM115 (Table I)) amounted to 9.7 ± 1.4 µM. Besides, the IC50 in test [4] (read-out: Inhibition Cancer Cells IC50, WM115 (Table III)) stood at 9.7 ± 1.4 µM. The “Fold increase in efficacy (PBIT/PBISe), WM115” value in test [4] (ratio of IC50 PBIT/PBISe, WM115) is greater than 10 fold.
